The record followed here is patent US9371527B2, “Compositions and methods related to protein displacement therapy for myotonic distrophy” (University of Rochester, priority 2006, dated 2016).

One data set has as its system ClC-1 channel. Briefly: Whole cell patch clamp of single FDB muscle fibers after morpholino injection/electroporation. The conditions noted are these: for ClC-1 current density: 3-5 days after foot pad injection/electroporation; for ClC-1 deactivation kinetics: 3-5 days after injection, -100 mV. In kind it is in vivo, HSA^LR mice. As to the method:
Antisense morpholino targeting the 3′ splice junction of ClC-1 exon 7a was injected into foot pad muscle of HSA^LR mice under general anesthesia. Uptake into muscle fibers was enhanced by in vivo electroporation. The morpholino was tagged with fluorescein. 4 days later, individual FDB muscle fibers were isolated. […] As a control, the opposite footpad was injected with morpholino having the inverted sequence. […] The peak current density in HSA^LR mice (center panel) is much lower than in wild-type mice (left panel). However, after morpholino treatment in HSA^LR mice (right panel), the current density is restored to levels that are similar to wild-type mice. […] The antisense morpholino (closed squares) restores chloride current density to normal levels (open circles or triangles).
The dashed lines represent the zero current level. Capacitative currents recorded from each fiber are shown in the insert of each panel (scale bars: vertical, 3 nA; horizontal, 4 ms). Superimposed traces (solid lines) of normalized ClC-1 current deactivation at −100 mV in FDB fibers obtained from invert- (circles) and antisense-treated (squares) HSA^LR mice and antisense-treated WT mice (triangles) fit with a second order exponential (symbols) are shown in the insert to the left hand panel. Note that accelerated ClC-1 deactivation kinetics of FDB fibers obtained from HSA^LR mice is normalized only following treatment with antisense morpholino. […] Smooth curves through each dataset were generated using a modified Boltzmann equation (Lueck, J. D., et al. (2007) J Gen Physiol 129:79-94). […] Mean±s.e.m.; *P<0.05 invert-treated HSA^LR fibers compared to each of the other experimental conditions; t-test. […] Mean±s.d.; n=3 to 7 per group. Antisense morpholino was injected into one TA, invert morpholino was injected into the contralateral TA, and gastrocnemius muscle served as an untreated control. **P<0.0001 for antisense- vs invert-treated control; ANOVA.
Therefore, the effect of AON treatment on ClC-1 channel function was determined Hindlimb foot pads of […] WT and HSA^LR mice were injected/electroporated with carboxyfluorescein-labeled antisense or invert morpholino. Patch clamp analysis was performed three-to-five days after injection, at a time when fibers were still small enough to maintain an effective voltage clamp (Lueck, J. D., et al. (2007) J Gen Physiol 129:79-94). […] Rescue of ClC-1 activity was not due to a shift in channel activation since the voltage dependence of relative channel open probability (Po) was not different between antisense and invert-injected HSA^LR and WT fibers (FIG. 26C).
Delivery of antisense and invert morpholinos into FDB fibers was achieved by injection and electroporation of hindlimb footpads. Briefly, 12-14-day-old HSA^LR mice were anesthetized by intraperitoneal injection of 100 mg/kg ketamine, 10 mg/kg xylazine, and 3 mg/kg acepromazine. Hindlimb foot pads then were injected with bovine hyaluronidase followed 1 hour later with 20 μg (10 μl, 2 μg/μl in PBS) of antisense or invert carboxyfluorescein-labeled morpholino. Uptake of morpholinos was enhanced by electroporation (100 V/cm, 20 pulses at 1 Hz, and 20 ms per pulse) of the foot pad immediately after injection (DiFranco, M., et al. (2006) Protein Expr Purif 47:281-288). Three to five days after injection/electroporation, individual FDB muscle fibers were isolated as previously described (Lueck, J. D., et al. (2007) J Gen Physiol 129:79-94). Brightfield and fluorescence (488 nm excitation) images of single FDB fibers were acquired using a 40× (1.4 NA) objective and a TILL IMAGO QE cooled-CCD camera. […] ClC-1 currents were measured and analyzed in whole cell patch clamp experiments (Hamill, O. P., et al. (1981) Pflugers Arch 391:85-100) using an approach identical to that described in detail elsewhere (Lueck, J. D., et al. (2007) J Gen Physiol 129:79-94). ClC-1 current density (pA/pF) was calculated in order to compare data across fibers of different sizes. […]
In general terms: Patch clamp records ionic current or voltage across a cell membrane.

For the next data set, the system named is ClC-1 mRNA. Briefly: Quantitative real time RT-PCR of ClC-1 mRNA level. The data set is classed as in vivo, HSA^LR mice. The conditions noted are these: 3 weeks after treatment, relative to RNA polymerase II transcription factor IIB. An excerpt:
HSA^LR and WT mice have the same (FVB) inbred strain background. […] FIGS. 25D and 25E show the percentage of ClC-1 splice products that include exon 7a is shown at 3 (D) and 8 (E) weeks following morpholino injection. Mean±s.d.; n=3 per group; **P<0.001; *P=0.035 antisense- versus invert-treated controls; t-test. […] ClC-1 mRNA level is expressed in arbitrary units relative to housekeeping gene RNA polymerase II transcription factor IIB. Mean±s.d.; n=3 per group; *P=0.06 for antisense vs invert-treated control; t-test.
RT-PCR products (22 cycles) were separated on agarose gels, stained with SYBR green II, and scanned on a laser fluorimager (Molecular Dynamics). Band intensity was quantified using ImageQuant software. Total levels of ClC-1 mRNA were determined by quantitative real-time RT-PCR (Taqman, Applied Biosystems) relative to housekeeping gene RNA polymerase II transcription factor IIB.
(In general: In qPCR the cycle at which signal appears reflects the starting amount.)

Turning to “antisense 1: morpholino 5′-CCAGGCACGGTCTGCAACAGAGAAG-3′ targeting the 3′ splice site of ClC-1 exon 7a (all phosphorodiamidate morpholino (PMO))”, in the data set with ClC-1 channel (listed as antisense morpholino), the ClC-1 current density result is listed as “restores normal chloride current density” and the ClC-1 deactivation kinetics result is “normalized”. For the same substance, in the data set on ClC-1 channel (listed as morpholino AON), the ClC-1 current density result is “rescued to WT values” and the ClC-1 deactivation kinetics result is “rescued to WT values”. Moreover, in the data set on ClC-1 channel (HSA^LR and WT), the “voltage dependence of relative channel open probability (Po)” value was “not different”. For the same substance, the “level of ClC-1 mRNA” value with ClC-1 mRNA (listed as antisense morpholino) is listed as “increased levels of ClC-1 mRNA”.

Turning to “control morpholino: control morpholino 5′-GAAGAGACAACGTCTGGCACGGACC-3′, the 5′-3′ invert of the 3′ splice site blocker (all phosphorodiamidate morpholino (PMO)) [reference compound]”, the ClC-1 current density entry in the data set with ClC-1 channel (listed as invert morpholino) is reported as “not different from those of untreated HSA^LR fibers”; in the data set on ClC-1 channel (listed as inverted morpholino) it was “markedly reduced”. In the data set with ClC-1 channel, the ClC-1 deactivation kinetics entry is given as “not different from those of untreated HSA^LR fibers”. In addition, the “level of ClC-1 mRNA” value with ClC-1 mRNA is “not control morpholino with inverted sequence”.
